Laboratory results from PubChem BioAssay AID248 (DTP/NCI, 2004).
Where “and” joins values, the source holds several entries; their conditions need not be identical. Identical values can stand only once. Toxic doses and inconclusive results are not listed. Rule as the data show it: active = T/C of 150% or more; inactive = T/C below 125%.

Test system: L1210 leukemia ip in BDF1 mice, survival T/C
Assay: NCI In Vivo Anticancer Drug Screen. Data for tumor model L1210 Leukemia (intraperitoneal) in B6D2F1 (BDF1) mice
Conditions: endpoint: mean survival time, higher = longer survival
Summary of the method: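 Mice bearing the transplanted tumor received compound or vehicle. Survival of the treated group was divided by that of the vehicle-treated control group to give the ratio.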

[1] = dose: 100.0 mg/kg/injection, schedule: Q01DX001 (ip), vehicle: saline with Tween-80
[2] = dose: 100.0 mg/kg/injection, schedule: Q04DX002 (ip), vehicle: saline with Tween-80
[3] = dose: 100.0 mg/kg/injection, schedule: Q04DX003 (ip), vehicle: saline with Tween-80
[4] = dose: 200.0 mg/kg/injection, schedule: Q01DX001 (ip), vehicle: saline with Tween-80
[5] = dose: 200.0 mg/kg/injection, schedule: Q04DX002 (ip), vehicle: saline with Tween-80
[6] = dose: 200.0 mg/kg/injection, schedule: Q04DX003 (ip), vehicle: saline with Tween-80
[7] = dose: 400.0 mg/kg/injection, schedule: Q01DX001 (ip), vehicle: saline with Tween-80
[8] = dose: 400.0 mg/kg/injection, schedule: Q04DX002 (ip), vehicle: saline with Tween-80
[9] = dose: 400.0 mg/kg/injection, schedule: Q04DX003 (ip), vehicle: saline with Tween-80
[10] = dose: 100.0 mg/kg/injection, schedule: Q01DX001 (ip), vehicle: saline
[11] = dose: 200.0 mg/kg/injection, schedule: Q01DX001 (ip), vehicle: saline
[12] = dose: 50.0 mg/kg/injection, schedule: Q01DX001 (ip), vehicle: saline
[13] = dose: 100.0 mg/kg/injection, schedule: Q01DX009 (ip), vehicle: Klucel (hydroxypropylcellulose) (HPC)
[14] = dose: 100.0 mg/kg/injection, schedule: Q04DX003 (ip), vehicle: Klucel (hydroxypropylcellulose) (HPC)
[15] = dose: 200.0 mg/kg/injection, schedule: Q01DX009 (ip), vehicle: Klucel (hydroxypropylcellulose) (HPC)
[16] = dose: 200.0 mg/kg/injection, schedule: Q04DX003 (ip), vehicle: Klucel (hydroxypropylcellulose) (HPC)
[17] = dose: 400.0 mg/kg/injection, schedule: Q01DX009 (ip), vehicle: Klucel (hydroxypropylcellulose) (HPC)
[18] = dose: 400.0 mg/kg/injection, schedule: Q04DX003 (ip), vehicle: Klucel (hydroxypropylcellulose) (HPC)
[19] = dose: 25.0 mg/kg/injection, schedule: Q04DX002 (ip), vehicle: Klucel (hydroxypropylcellulose) (HPC)
[20] = dose: 50.0 mg/kg/injection, schedule: Q04DX002 (ip), vehicle: Klucel (hydroxypropylcellulose) (HPC)
[21] = dose: 100.0 mg/kg/injection, schedule: Q04DX002 (ip), vehicle: Klucel (hydroxypropylcellulose) (HPC)
[22] = dose: 400.0 mg/kg/injection, schedule: Q04DX002 (ip), vehicle: Klucel (hydroxypropylcellulose) (HPC)

Measured: T/C

O=C(Nc1ccc(S(=O)(=O)F)cc1)Oc1ccc([N+](=O)[O-])cc1
inactive: dose: 25.0 mg/kg/injection, schedule: Q01DX009 (ip), vehicle: saline with Tween-80 92 % of control and 93 % of control | dose: 50.0 mg/kg/injection, schedule: Q01DX001 (ip), vehicle: saline with Tween-80 103 % of control | dose: 50.0 mg/kg/injection, schedule: Q01DX009 (ip), vehicle: saline with Tween-80 92 % of control and 89 % of control | [1] 105 % of control | [2] 95 % of control | [3] 93 % of control | [4] 97 % of control | dose: 200.0 mg/kg/injection, schedule: Q01DX009 (ip), vehicle: saline with Tween-80 98 % of control | [5] 96 % of control | [6] 98 % of control | [7] 105 % of control | [8] 88 % of control | [9] 103 % of control

COc1ccc(/C=C\C(=O)NCCCCNC(=O)/C=C/c2ccc(OC)cc2)cc1
inactive: [10] 101 % of control | [11] 88 % of control

CCOC(=O)c1cc[n+](C)c2ccccc12
inactive: dose: 9.37 mg/kg/injection, schedule: Q01DX009 (ip), vehicle: acetone 101 % of control | dose: 18.75 mg/kg/injection, schedule: Q01DX009 (ip), vehicle: acetone 95 % of control | dose: 37.5 mg/kg/injection, schedule: Q01DX009 (ip), vehicle: acetone 98 % of control | dose: 37.5 mg/kg/injection, schedule: Q04DX003 (ip), vehicle: acetone 92 % of control | dose: 75.0 mg/kg/injection, schedule: Q04DX003 (ip), vehicle: acetone 89 % of control | dose: 150.0 mg/kg/injection, schedule: Q01DX001 (ip), vehicle: acetone 89 % of control

CCOC(=O)C1CN(C(C)(C)C)C(=O)C1=O (configuration not stated)
inactive: [12] 106 % of control | [10] 102 % of control | [11] 108 % of control | dose: 400.0 mg/kg/injection, schedule: Q01DX001 (ip), vehicle: saline 100 % of control

CCCCN(CCCC)S(=O)(=O)CC
inactive: [2] 100 % of control | [5] 98 % of control | [8] 95 % of control

O=C(c1ccc(O)cc1O)c1cccc2ccccc12
inactive: [13] 95 % of control | [14] 93 % of control | [15] 97 % of control | [16] 95 % of control | [17] 99 % of control | [18] 93 % of control

OCCN(CC1C(c2ccccc2)C1c1ccccc1)C1CCCCC1 (configuration not stated)
inactive: dose: 6.25 mg/kg/injection, schedule: Q04DX002 (ip), vehicle: Klucel (hydroxypropylcellulose) (HPC) 98 % of control | [19] 90 % of control | [20] 97 % of control | [21] 97 % of control

O=C(O)c1ccccc1Nc1cccc(C(F)(F)F)c1
inactive: [3] 104 % of control | [6] 104 % of control | [9] 104 % of control

CC(CC12CC3CC(CC(C3)C1)C2)NN (configuration not stated)
inactive: [19] 101 % of control | [20] 86 % of control

C=C(C)COc1c(C)c(C)c(OCC(C)C)c(C)c1C
inactive: dose: 50.0 mg/kg/injection, schedule: Q04DX003 (ip), vehicle: Klucel (hydroxypropylcellulose) (HPC) 96 % of control | [14] 93 % of control | [16] 93 % of control

CN1CCC(OC(=O)C(O)C2CCCCC2)CC1 (configuration not stated)
inactive: [14] 104 % of control | [16] 103 % of control

CCCCCCCCN(C)Cc1cc(C(C)(C)C)cc(-c2ccccc2)c1O
inactive: [1] 94 % of control | [4] 90 % of control | [7] 92 % of control

CCOP(=S)(OCC)SCc1ccccc1
inactive: [3] 97 % of control | [6] 98 % of control | [9] 106 % of control

O=[N+]([O-])/C(=C/c1ccccc1)c1ccccc1
inactive: [12] 102 % of control | [10] 108 % of control | [11] 104 % of control

COC(=O)C1=CCCN(C)C1
inactive: dose: 3.12 mg/kg/injection, schedule: Q01DX009 (ip), vehicle: saline 103 % of control | dose: 6.25 mg/kg/injection, schedule: Q01DX009 (ip), vehicle: saline 101 % of control | dose: 12.5 mg/kg/injection, schedule: Q01DX009 (ip), vehicle: saline 98 % of control | dose: 12.5 mg/kg/injection, schedule: Q04DX003 (ip), vehicle: saline 93 % of control | dose: 20.0 mg/kg/injection, schedule: Q01DX009 (ip), vehicle: saline 93 % of control | dose: 20.0 mg/kg/injection, schedule: Q04DX003 (ip), vehicle: saline 97 % of control | dose: 25.0 mg/kg/injection, schedule: Q01DX009 (ip), vehicle: saline 98 % of control | dose: 25.0 mg/kg/injection, schedule: Q04DX003 (ip), vehicle: saline 95 % of control and 94 % of control | dose: 40.0 mg/kg/injection, schedule: Q01DX009 (ip), vehicle: saline 92 % of control | dose: 40.0 mg/kg/injection, schedule: Q04DX003 (ip), vehicle: saline 94 % of control | dose: 50.0 mg/kg/injection, schedule: Q01DX009 (ip), vehicle: saline 106 % of control | dose: 50.0 mg/kg/injection, schedule: Q04DX003 (ip), vehicle: saline 103 % of control and 94 % of control | dose: 80.0 mg/kg/injection, schedule: Q01DX009 (ip), vehicle: saline 90 % of control | dose: 80.0 mg/kg/injection, schedule: Q04DX003 (ip), vehicle: saline 100 % of control

CC(OC(C)c1ccccc1)c1ccccc1 (configuration not stated)
inactive: [13] 96 % of control | [15] 105 % of control | [17] 101 % of control

CCCCCCCCCCN=C(N)N/C(N)=N/S(=O)(=O)c1ccc(OCCCC)cc1
inactive: [21] 103 % of control | dose: 200.0 mg/kg/injection, schedule: Q04DX002 (ip), vehicle: Klucel (hydroxypropylcellulose) (HPC) 95 % of control | [22] 103 % of control

CCCCC(CCCC)c1cc[n+](CC(=O)c2ccccc2)cc1
inactive: dose: 12.5 mg/kg/injection, schedule: Q01DX001 (ip), vehicle: saline 106 % of control | [12] 97 % of control

CCOc1ccc(NC(=O)c2cc(C(=O)O)c(C(=O)Nc3ccc(OCC)cc3)cc2C(=O)O)cc1
inactive: [21] 109 % of control | [22] 109 % of control

CCN(CC)c1cc(Cl)c(C=O)cc1[N+](=O)[O-]
inactive: [13] 100 % of control | [14] 94 % of control | [15] 107 % of control | [16] 96 % of control | [17] 102 % of control | [18] 102 % of control

FC(F)(F)c1cccc(B2OCCNCCO2)c1
inactive: [3] 106 % of control | [6] 95 % of control

CC(=O)c1c[nH]c2ccccc12
inactive: dose: 100.0 mg/kg/injection, schedule: Q01DX009 (ip), vehicle: saline 101 % of control | dose: 200.0 mg/kg/injection, schedule: Q01DX009 (ip), vehicle: saline 108 % of control | dose: 400.0 mg/kg/injection, schedule: Q01DX009 (ip), vehicle: saline 95 % of control
